Reference: ChEMBL document CHEMBL3885861, “Open TG-GATES”

Species on record: Rattus norvegicus
Assay: Open TG-GATES - Regimen: Single
Assay type: toxicity, organism-based, Sprague-Dawley
Parameters: regimen Single, gender Male, age 6 weeks
Conditions: in vivo, po, route gavage; for APTT / Bas / Eos / Fbg / Hb / Ht / Lym / MCH / MCHC / MCV / Mono / Neu / PT / Plat / RBC / Ret / WBC: tissue Blood; for KIDNEY_L / KIDNEY_R / KIDNEY_TOTAL: tissue Kidney; for LIVER: tissue Liver; for A/G / ALP / ALT / AST / BUN / CRE / Ca / Cl / DBIL / GLC / IP / K / LDH / Na / PL / RALB / TBIL / TC / TG / TP / gamma-GTP: tissue Plasma
[1] = 0 mg/kg, 3 h, dose level Control
[2] = 0 mg/kg, 6 h, dose level Control
[3] = 0 mg/kg, 9 h, dose level Control
[4] = 0 mg/kg, 24 h, dose level Control

## C[C@H]1C(=O)O[C@@H]2CCN3CC=C(COC(=O)[C@](C)(O)[C@]1(C)O)[C@H]23 [MONOCROTALINE]
[1]
  TERMINAL_BW: 217.7 g
  APTT: 20.3 s
  Bas: 0%
  Eos: 0.8%
  Fbg: 316 mg/dL
  Hb: 12.9 g/dL
  Ht: 37.7%
  Lym: 76.4%
  MCH: 21.8 pg
  MCHC: 34.2%
  MCV: 63.8 fL
  Mono: 3.2%
  Neu: 19%
  PT: 16.8 s
  Plat: 116.9 x10_4/uL
  RBC: 591.6 x10_4/ul
  Ret: 9.3%
  WBC: 86.4 x10_2/uL
  KIDNEY_L: 1 g
  KIDNEY_R: 1 g
  KIDNEY_TOTAL: 2 g
  LIVER: 10.4 g
  A/G: 1.3
  ALP: 1563.2 IU/L
  ALT: 38 IU/L
  AST: 66.8 IU/L
  BUN: 13.4 mg/dL
  CRE: 0.2 mg/dL
  Ca: 10.7 mg/dL
  Cl: 106.6 meq/L
  DBIL: 0.002 mg/dL
  GLC: 185.6 mg/dL
  IP: 8.3 mg/dL
  K: 4 meq/L
  LDH: 161 IU/L
  Na: 142.6 meq/L
  PL: 141.8 mg/dL
  RALB: 3.1 g/dL
  TBIL: 0.028 mg/dL
  TC: 78.2 mg/dL
  TG: 58.6 mg/dL
  TP: 5.4 g/dL
  gamma-GTP: 1 IU/L
[2]
  TERMINAL_BW: 200.2 g
  APTT: 20.2 s
  Bas: 0%
  Eos: 1%
  Fbg: 316 mg/dL
  Hb: 13.4 g/dL
  Ht: 39.5%
  Lym: 81%
  MCH: 21.5 pg
  MCHC: 33.9%
  MCV: 63.2 fL
  Mono: 2.8%
  Neu: 14.8%
  PT: 16.2 s
  Plat: 112.4 x10_4/uL
  RBC: 626.4 x10_4/ul
  Ret: 7.8%
  WBC: 94 x10_2/uL
  KIDNEY_L: 0.9 g
  KIDNEY_R: 0.9 g
  KIDNEY_TOTAL: 1.9 g
  LIVER: 8.5 g
  A/G: 1.3
  ALP: 1365.8 IU/L
  ALT: 37.6 IU/L
  AST: 71.6 IU/L
  BUN: 11.4 mg/dL
  CRE: 0.1 mg/dL
  Ca: 10.6 mg/dL
  Cl: 106.8 meq/L
  DBIL: 0.004 mg/dL
  GLC: 176 mg/dL
  IP: 9 mg/dL
  K: 4.2 meq/L
  LDH: 230.6 IU/L
  Na: 142.6 meq/L
  PL: 132.4 mg/dL
  RALB: 3.1 g/dL
  TBIL: 0.026 mg/dL
  TC: 75.2 mg/dL
  TG: 56 mg/dL
  TP: 5.5 g/dL
  gamma-GTP: 1.2 IU/L
[3]
  TERMINAL_BW: 207.2 g
  APTT: 19.8 s
  Bas: 0%
  Eos: 1%
  Fbg: 300.8 mg/dL
  Hb: 13.3 g/dL
  Ht: 38.8%
  Lym: 73%
  MCH: 21.4 pg
  MCHC: 34.2%
  MCV: 62.7 fL
  Mono: 2.6%
  Neu: 22.4%
  PT: 16.2 s
  Plat: 110.9 x10_4/uL
  RBC: 618.6 x10_4/ul
  Ret: 8.7%
  WBC: 92.3 x10_2/uL
  KIDNEY_L: 0.9 g
  KIDNEY_R: 1 g
  KIDNEY_TOTAL: 1.9 g
  LIVER: 8.6 g
  A/G: 1.3
  ALP: 1373.4 IU/L
  ALT: 38 IU/L
  AST: 67.8 IU/L
  BUN: 10.4 mg/dL
  CRE: 0.2 mg/dL
  Ca: 10.4 mg/dL
  Cl: 106.8 meq/L
  DBIL: 0.004 mg/dL
  GLC: 174.2 mg/dL
  IP: 9.1 mg/dL
  K: 4.1 meq/L
  LDH: 184.2 IU/L
  Na: 142 meq/L
  PL: 137 mg/dL
  RALB: 3.1 g/dL
  TBIL: 0.028 mg/dL
  TC: 83.2 mg/dL
  TG: 50.4 mg/dL
  TP: 5.4 g/dL
  gamma-GTP: 1 IU/L
[4]
  TERMINAL_BW: 221.9 g
  APTT: 22 s
  Bas: 0%
  Eos: 1%
  Fbg: 299 mg/dL
  Hb: 12.9 g/dL
  Ht: 37.9%
  Lym: 83%
  MCH: 20.8 pg
  MCHC: 34.1%
  MCV: 61.1 fL
  Mono: 2.8%
  Neu: 12.6%
  PT: 16.5 s
  Plat: 119.4 x10_4/uL
  RBC: 620.4 x10_4/ul
  Ret: 8.4%
  WBC: 85.2 x10_2/uL
  KIDNEY_L: 1 g
  KIDNEY_R: 1 g
  KIDNEY_TOTAL: 2 g
  LIVER: 10.5 g
  A/G: 1.3
  ALP: 1787.6 IU/L
  ALT: 44.4 IU/L
  AST: 74 IU/L
  BUN: 18.4 mg/dL
  CRE: 0.2 mg/dL
  Ca: 10.7 mg/dL
  Cl: 105 meq/L
  DBIL: 0.006 mg/dL
  GLC: 187.6 mg/dL
  IP: 6.8 mg/dL
  K: 4.2 meq/L
  LDH: 227.2 IU/L
  Na: 141.2 meq/L
  PL: 150.4 mg/dL
  RALB: 3.2 g/dL
  TBIL: 0.008 mg/dL
  TC: 78.2 mg/dL
  TG: 101.6 mg/dL
  TP: 5.6 g/dL
  gamma-GTP: 1 IU/L
3 mg/kg, 3 h, dose level Low
  TERMINAL_BW: 207 g
  APTT: 21.1 s
  Bas: 0%
  Eos: 0.8%
  Fbg: 296.8 mg/dL
  Hb: 13.5 g/dL
  Ht: 39.3%
  Lym: 80.4%
  MCH: 21.9 pg
  MCHC: 34.3%
  MCV: 63.9 fL
  Mono: 2.6%
  Neu: 16.6%
  PT: 16.6 s
  Plat: 121 x10_4/uL
  RBC: 615.6 x10_4/ul
  Ret: 8.9%
  WBC: 70.3 x10_2/uL
  KIDNEY_L: 0.9 g
  KIDNEY_R: 0.9 g
  KIDNEY_TOTAL: 1.8 g
  LIVER: 9.6 g
  A/G: 1.4
  ALP: 1405.4 IU/L
  ALT: 40.4 IU/L
  AST: 70.6 IU/L
  BUN: 14.4 mg/dL
  CRE: 0.1 mg/dL
  Ca: 10.6 mg/dL
  Cl: 106.4 meq/L
  DBIL: 0.002 mg/dL
  GLC: 176.6 mg/dL
  IP: 8.6 mg/dL
  K: 4.2 meq/L
  LDH: 232.4 IU/L
  Na: 142.8 meq/L
  PL: 141 mg/dL
  RALB: 3.1 g/dL
  TBIL: 0.014 mg/dL
  TC: 79.4 mg/dL
  TG: 73.8 mg/dL
  TP: 5.4 g/dL
  gamma-GTP: 1 IU/L
3 mg/kg, 6 h, dose level Low
  TERMINAL_BW: 213.3 g
  APTT: 20.6 s
  Bas: 0%
  Eos: 0.8%
  Fbg: 314 mg/dL
  Hb: 13.4 g/dL
  Ht: 39.7%
  Lym: 77.6%
  MCH: 21.3 pg
  MCHC: 33.9%
  MCV: 62.8 fL
  Mono: 2.4%
  Neu: 17.8%
  PT: 16.2 s
  Plat: 124.3 x10_4/uL
  RBC: 632.2 x10_4/ul
  Ret: 9.3%
  WBC: 86.8 x10_2/uL
  KIDNEY_L: 0.9 g
  KIDNEY_R: 0.9 g
  KIDNEY_TOTAL: 1.9 g
  LIVER: 9.9 g
  A/G: 1.3
  ALP: 1354.2 IU/L
  ALT: 40 IU/L
  AST: 67.2 IU/L
  BUN: 12.2 mg/dL
  CRE: 0.1 mg/dL
  Ca: 10.7 mg/dL
  Cl: 106 meq/L
  DBIL: 0.004 mg/dL
  GLC: 175.2 mg/dL
  IP: 9.3 mg/dL
  K: 4.5 meq/L
  LDH: 200 IU/L
  Na: 141.8 meq/L
  PL: 139.8 mg/dL
  RALB: 3.1 g/dL
  TBIL: 0.01 mg/dL
  TC: 78 mg/dL
  TG: 86.2 mg/dL
  TP: 5.4 g/dL
  gamma-GTP: 1.2 IU/L
3 mg/kg, 9 h, dose level Low
  TERMINAL_BW: 205.5 g
  APTT: 21 s
  Bas: 0%
  Eos: 0.6%
  Fbg: 291 mg/dL
  Hb: 13.3 g/dL
  Ht: 38.9%
  Lym: 79.8%
  MCH: 20.7 pg
  MCHC: 34.2%
  MCV: 60.6 fL
  Mono: 2.2%
  Neu: 16.2%
  PT: 16.4 s
  Plat: 126 x10_4/uL
  RBC: 642.2 x10_4/ul
  Ret: 8.7%
  WBC: 73.2 x10_2/uL
  KIDNEY_L: 0.9 g
  KIDNEY_R: 1 g
  KIDNEY_TOTAL: 1.9 g
  LIVER: 8.8 g
  A/G: 1.3
  ALP: 1565.2 IU/L
  ALT: 35.6 IU/L
  AST: 67 IU/L
  BUN: 12.4 mg/dL
  CRE: 0.1 mg/dL
  Ca: 10.5 mg/dL
  Cl: 106 meq/L
  DBIL: 0.006 mg/dL
  GLC: 184.4 mg/dL
  IP: 9.5 mg/dL
  K: 4 meq/L
  LDH: 197 IU/L
  Na: 142.2 meq/L
  PL: 130.6 mg/dL
  RALB: 3.1 g/dL
  TBIL: 0.02 mg/dL
  TC: 72.2 mg/dL
  TG: 48.6 mg/dL
  TP: 5.4 g/dL
  gamma-GTP: 1 IU/L
3 mg/kg, 24 h, dose level Low
  TERMINAL_BW: 217.7 g
  APTT: 20.9 s
  Bas: 0%
  Eos: 1%
  Fbg: 305 mg/dL
  Hb: 13.2 g/dL
  Ht: 38.8%
  Lym: 80.6%
  MCH: 20.5 pg
  MCHC: 34.1%
  MCV: 60.3 fL
  Mono: 2.6%
  Neu: 15%
  PT: 16.2 s
  Plat: 117.2 x10_4/uL
  RBC: 645.2 x10_4/ul
  Ret: 7.7%
  WBC: 97.3 x10_2/uL
  KIDNEY_L: 1 g
  KIDNEY_R: 1 g
  KIDNEY_TOTAL: 2 g
  LIVER: 10.4 g
  A/G: 1.3
  ALP: 1841.2 IU/L
  ALT: 43.6 IU/L
  AST: 70.2 IU/L
  BUN: 16.4 mg/dL
  CRE: 0.1 mg/dL
  Ca: 10.8 mg/dL
  Cl: 106.4 meq/L
  DBIL: 0.006 mg/dL
  GLC: 178 mg/dL
  IP: 7.6 mg/dL
  K: 4.2 meq/L
  LDH: 220.2 IU/L
  Na: 142.2 meq/L
  PL: 160.2 mg/dL
  RALB: 3.2 g/dL
  TBIL: 0.006 mg/dL
  TC: 81.2 mg/dL
  TG: 102.8 mg/dL
  TP: 5.6 g/dL
  gamma-GTP: 1 IU/L
